Assays:
Assay type in all cases: cell-based, mouse
[1] = test system: Dll4-mediated Notch signaling; assay: MCP-1 expression in differentiated 3T3-L1 adipocytes
Procedure: 3T3-L1 preadipocytes (American Type Culture Collection) were maintained in Dulbecco's modified Eagle's medium (DMEM) (Gibco) containing 10% FBS. Differentiation of 3T3-L1 preadipocytes to mature adipocytes was performed as previously described and used as differentiated 3T3-L1 adipocytes at day 10 after the induction of differentiation. Differentiation was initiated two days after cells were confluent by adding fresh medium containing 0.5 mM isobutylmethylxanthine, 1 μM dexamethasone, and 10 μg/ml insulin. After two days, the methylisobutylxanthine and dexamethasone were removed and insulin was maintained for two additional days. On day 4 and thereafter, DMEM containing only 10% FBS was replaced every two days. […]
Applicants transfected siRNA against mouse Dll4 (Dharmacon), plasmid encoding mouse Dll4 (GeneCopoeia), RBP-Jκ reporter (SABiosciences), and Notch3 intracellular domains (N3ICD) to 3T3-L1 adipocytes by electroporation (Nucleofector system; Amaxa) according to the manufacturer's instructions. […] Luciferase activity was determined using a Dual-Luciferase Reporter Assay System (Promega). […]
(§1) Applicants synthesized cDNA from total RNA extracted from tissues and cells. Real-time quantitative RT-PCR was done with a MyiQ single-color real-time PCR detection system (BioRad) and PerfeCTa SYBR Green SuperMix for iQ (Quanta Biosciences). […]

NF-κB pathway = assay: NF-κB activation in 3T3-L1 adipocytes (immunoblotting, immunocytochemistry)
Procedure: Differentiated 3T3-L1 adipocytes were starved for 16 hours and then used for in vitro experiments. For blockade Dll4-mediated Notch signaling, Applicants treated 3T3-L1 adipocytes with Dll4 Ab or IgG (10 μg/ml) and γ-secretase inhibitor (DAPT, 10 μM) or DMSO for 24 hours. To activate Dll4-mediated Notch signaling, Applicants seeded 3T3-L1 adipocytes to plates coated with recombinant mouse Dll4 (rDll4) (1 μg/ml), and then harvested cells after 48-hour incubation (Williams, et al., Blood 107:931-939 (2006)). Applicants also used SN50 (25 μg/ml) NF-κB inhibitor to determine the interaction between Notch signaling and the NF-κB pathway.
Differentiated 3T3-L1 adipocytes incubated in rDll4-coated plates were fixed in 4% paraformaldehyde and permeabilized with 0.1% NP40. After blocking with 1% goat serum, cells were incubated with a rabbit anti-p65 antibody (Santa Cruz Biotechnology), followed by an Alexa Fluor 594-conjugated donkey anti-rabbit Ig antibody (Molecular Probes). Nuclei were counterstained with Hoechst 33342 (Sigma). Cells were observed under an ECLIPSE TE2000-U (Nikon) equipped with a mercury illumination system and SPOT RT Camera (Diagnostic Instruments, Inc.).
Lysates prepared from tissues and cells in lysis buffer containing protease inhibitor cocktail (Sigma) and phosphatase inhibitor cocktail (Roche) were separated with SDS-PAGE gels. Applicants used the following antibodies: NF-κB p65 (Santa Cruz Biotechnology), phospho-NF-κB p65 (Rock Land), IK-Bα (Cell Signaling), and β-actin (Sigma).

[2] = test system: Dll4-mediated Notch signaling; assay: M1/M2 gene expression in RAW264.7 cells
Procedure: RAW264.7 cells (American Type Culture Collection) were also maintained in DMEM containing 10% FBS. For blockade of Dll4-mediated Notch signaling, Applicants pre-treated RAW264.7 cells with Dll4 Ab or IgG for 2 hours and then stimulated these cells with 1 ng/ml LPS for 24 hours. LPS stimulation activates the Notch signaling in RAW264.7 cells.
Applicants transfected siRNA against mouse Dll4 (Dharmacon), plasmid encoding mouse Dll4 (GeneCopoeia), RBP-Jκ reporter (SABiosciences), and Notch3 intracellular domains (N3ICD) to 3T3-L1 adipocytes by electroporation (Nucleofector system; Amaxa) according to the manufacturer's instructions. The Dll4-expressing plasmid was also transfected to RAW264.7 cells. N3ICD was a generous gift from Dr. Shigeru Chiba (Department of Clinical and Experimental Hematology, Graduate School of Comprehensive Human Sciences, University of Tsukuba). Applicants transfected 2 μg of siRNA or plasmid to cells and harvested them 48 hours or 24 hours after transfection, respectively. […] Luciferase activity was determined using a Dual-Luciferase Reporter Assay System (Promega). […]
as §1

RBP-Jκ reporter = RBP-Jκ reporter luciferase assay in 3T3-L1 adipocytes; settings: 3T3-L1 adipocytes on rDll4-coated plates
Description: Applicants transfected siRNA against mouse Dll4 (Dharmacon), plasmid encoding mouse Dll4 (GeneCopoeia), RBP-Jκ reporter (SABiosciences), and Notch3 intracellular domains (N3ICD) to 3T3-L1 adipocytes by electroporation (Nucleofector system; Amaxa) according to the manufacturer's instructions. The Dll4-expressing plasmid was also transfected to RAW264.7 cells. N3ICD was a generous gift from Dr. Shigeru Chiba (Department of Clinical and Experimental Hematology, Graduate School of Comprehensive Human Sciences, University of Tsukuba). Applicants transfected 2 μg of siRNA or plasmid to cells and harvested them 48 hours or 24 hours after transfection, respectively. Applicants used 5 μl of RBP-Jκ reporter solution for each transfection. After incubation for 24 hours, cells were seeded to rDll4-coated plates and used for the luciferase assay after 48-hour incubation. Luciferase activity was determined using a Dual-Luciferase Reporter Assay System (Promega). Applicants transfected 5 μg of N3ICD to cells and harvested them 24 hours after transfection.

Row | RBP-Jκ reporter activity (RBP-Jκ reporter) | Compound | MCP-1 RNA expression ([1]; differentiated 3T3-L1 adipocytes, blockade of Notch signaling) | degradation of IκBα (NF-κB pathway) | nuclear translocation of p65 (NF-κB pathway) | phosphorylation of NF-κB subunit p65 (NF-κB pathway) | anti-inflammatory M2 genes (e.g., IL-10) [2] | expression of pro-inflammatory M1 genes such as IL-1β and iNOS [2] | MCP-1 expression ([1]; 3T3-L1 adipocytes cultured on rDll4-coated dishes)
1 |  | C[C@H](NC(=O)Cc1cc(F)cc(F)c1)C(=O)N[C@H](C(=O)OC(C)(C)C)c1ccccc1 [DAPT] | produced a similar effect |  |  |  |  |  | 
2 | Stimulation | rDll4: recombinant mouse Dll4 coated on plates to activate Dll4-mediated Notch signaling |  | increased | increased | increased | suppressed | induced expression | promoted
